Data as given in patent US7932283B2, “Fungicide N-cyclopropyl-sulfonylamide derivatives” (Bayer Cropscience AG, priority 2006, dated 2011).

Experiment: logP by HPLC on reversed-phase column (C 18), EEC Directive 79/B31 Annex V.A8, methods A and B
Assay type: physicochemical
Conditions: reversed-phase HPLC column (C 18), linear gradient 10% to 90% acetonitrile
Method: Calibration was carried out using unbranched alkan-2-ones (having 3 to 16 carbon atoms) with known logP values (determination of the logP values by the retention times using linear interpolation between two successive alkanones).

[1] = HPLC reversed-phase C 18, method A: 43° C., 0.1% aqueous phosphoric acid, acetonitrile
[2] = HPLC reversed-phase C 18, method B: 40° C., 0.1% aqueous formic acid and acetonitrile

SMILES	chromatographic logP [1]	chromatographic logP [2]
O=C(c1cc(Br)c(Br)o1)N(C1CC1)S(=O)(=O)c1ccccc1O [Compound 1]	3.58	–
Cc1occc1C(=O)N(C1CC1)S(=O)(=O)c1cccc(O)c1 [Compound 3]	3.27	–
Cc1occc1C(=O)N(C1CC1)S(=O)(=O)c1ccccc1O [Compound 4]	2.77	–
Cc1cc(C(=O)N(C2CC2)S(=O)(=O)c2cccc(O)c2O)c(C)o1 [Compound 5]	–	3.8
Cc1cc(C(=O)N(C2CC2)S(=O)(=O)c2ccc(O)c(O)c2O)c(C)o1 [Compound 6]	–	4.4
Cc1cc(C(=O)N(C2CC2)S(=O)(=O)c2ccc(Oc3ccc(Br)cc3)cc2)c(C)o1 [Compound 7]	–	4.9
Cc1ccsc1C(=O)N(C1CC1)S(=O)(=O)c1cccc(O)c1 [Compound 13]	3.64	–
Cc1ccsc1C(=O)N(C1CC1)S(=O)(=O)c1ccccc1O [Compound 14]	3.12	–
O=C(c1cc(Br)c(Br)s1)N(C1CC1)S(=O)(=O)c1ccccc1O [Compound 15]	4.07	–
O=C(c1ccsc1I)N(C1CC1)S(=O)(=O)c1cccc(O)c1O [Compound 19]	–	3.8
O=C(c1ccsc1I)N(C1CC1)S(=O)(=O)c1ccc(Oc2ccccc2)cc1 [Compound 21]	–	4.3
O=C(c1ccsc1I)N(C1CC1)S(=O)(=O)c1ccc(Oc2ccc(Br)cc2)cc1 [Compound 22]	–	4.9
COc1cscc1C(=O)N(C1CC1)S(=O)(=O)c1cccc(O)c1O [Compound 25]	–	3.3
COc1cscc1C(=O)N(C1CC1)S(=O)(=O)c1ccc(Oc2ccccc2)cc1 [Compound 26]	–	3.9
COc1cscc1C(=O)N(C1CC1)S(=O)(=O)c1ccc(O)c(O)c1O [Compound 27]	–	3.9
COc1cscc1C(=O)N(C1CC1)S(=O)(=O)c1ccc(Oc2ccc(Br)cc2)cc1 [Compound 28]	–	4.4

Now from value to molecule:

chromatographic logP [1]	chromatographic logP [2]	SMILES
3.46	–	CCOC(=O)c1[nH]c(C)c(C(=O)N(C2CC2)S(=O)(=O)c2cccc(O)c2)c1C [Compound 29]
3.72	–	CCOC(=O)c1[nH]c(C)c(C(=O)N(C2CC2)S(=O)(=O)c2ccc(C(F)(F)F)cc2)c1C [Compound 30]
4.08	–	CCOC(=O)c1[nH]c(C)c(C(=O)N(C2CC2)S(=O)(=O)c2ccc(O)c(C(F)(F)F)c2)c1C [Compound 31]
3.63	–	CCOC(=O)c1[nH]c(C)c(C(=O)N(C2CC2)S(=O)(=O)c2ccc(O)cc2O)c1C [Compound 32]
4.13	–	CCOC(=O)c1[nH]c(C)c(C(=O)N(C2CC2)S(=O)(=O)c2ccc(C(C)(C)C)cc2)c1C [Compound 33]
–	3.5	CCOC(=O)c1[nH]c(C)c(C(=O)N(C2CC2)S(=O)(=O)c2cccc(O)c2O)c1C [Compound 34]
–	3.3	Cn1cc(C(=O)N(C2CC2)S(=O)(=O)c2cccc(O)c2O)c(C(F)(F)F)c1 [Compound 36]
–	3.9	Cn1cc(C(=O)N(C2CC2)S(=O)(=O)c2ccc(O)c(O)c2O)c(C(F)(F)F)c1 [Compound 37]
–	4	Cn1cc(C(=O)N(C2CC2)S(=O)(=O)c2ccc(Oc3ccccc3)cc2)c(C(F)(F)F)c1 [Compound 38]
–	4.5	Cn1cc(C(=O)N(C2CC2)S(=O)(=O)c2ccc(Oc3ccc(Br)cc3)cc2)c(C(F)(F)F)c1 [Compound 39]
3.2	–	Cc1nc(C(F)(F)F)c(C(=O)N(C2CC2)S(=O)(=O)c2ccccc2O)s1 [Compound 59]
2.8	–	Cc1ncc(C(=O)N(C2CC2)S(=O)(=O)c2cccc(O)c2)s1 [Compound 60]
3.1	–	Cc1ncc(C(=O)N(C2CC2)S(=O)(=O)c2ccc(C(F)(F)F)cc2)s1 [Compound 61]
3.46	–	Cc1ncc(C(=O)N(C2CC2)S(=O)(=O)c2ccc(O)c(C(F)(F)F)c2)s1 [Compound 62]
3.33	–	Cc1ncc(C(=O)N(C2CC2)S(=O)(=O)c2ccc(O)c(O)c2)s1 [Compound 63]
2.91	–	Cc1ncc(C(=O)N(C2CC2)S(=O)(=O)c2ccc(O)cc2O)s1 [Compound 64]
